From patent US20060211606A1, “Peptides” (priority 2005, published 2006)
Entries after “also recorded” stand apart in the source; their conditions may differ. *1 amine or outer side, *2 acyl side, *3 side chain or, on linkers, in order; H or OH if unused. [ ]: non-standard residue; d: D form. PEG (Jeffamine) = not defined here; Suc = O=C(CCC(=O)[*:2])[*:1]

Tests used:
[1] = tested on: rat organotypic hippocampal cultures; experiment: TBH oxidative stress in rat organotypic hippocampal cultures, PI-stained cell death; format: cell-based; details: for time for which the neuroprotective effect was observed: rat hippocampal slices after TBH challenge; for protection against TBH-induced cell death: rat hippocampal slices, 24 hours, peptide 10 ng/ml as printed
Description: Hippocampal slices were prepared from 7-10 days old Wistar rats according to the method of Stoppini et al (1991) with minor modifications according to Sarnowska (2002). Briefly, rats were anaesthetised with Vetbutal, ice-cooled and decapitated. Brains were quickly removed to ice-cold working solution pH 7.2: 96% of HBSS/HEPES-(Ca2^+ and Mg2^+ free) containing 2 mmol/L L-glutamine, 5 mg/ml glucose, 1% amphotericine B, 0.4% penicillin-streptomycin. Hippocampi were separated and cut into 400 μm slices using McIlwain tissue chopper. […] Four selected slices were settled on each membrane. Slices were cultivated for two weeks at 32° C. in 5% CO2 atmosphere of 100% humidity. The viability of the slices was checked daily under the light microscopy and evaluated additionally on the day of experiment by propidium iodide staining and observed under fluorescent microscope (Zeiss Axiovert 25) with MC-10095 camera (Carl Zeiss Jena GmbH) in order to record initial PI uptake (Sarnowska, 2002).
Oxidative stress was induced after 14 days in culture by adding 30 mM TBH ([…]) for 3 hours. After that time the slices were transferred to the fresh culture medium. Resulting cell death was assessed 24 and 48 h after the beginning of the experiment.
In order to investigate a pathway in which the MGF acts, a specific anti-IGF-1 receptor (AB-1) blocking antibody (Oncogene) was included in the medium 1 hour before the slices were exposed to TBH and MGF or IGF-1 peptide. The concentration of the antibody (1000 ng/ml) was used according to the manufacturer's recommendation.
To obtain detailed images of the slices, a confocal laser scanning microscope (Zeiss LSM 510) was used. A helium-neon laser (543 nm) was used for the excitation of propidium iodide (PI). […] Quantitative measurement of tissue deterioration was performed using image analyser KS 300 (Carl Zeiss Jena GmbH).
Cell damage was quantified on fluorescence images of PI-stained cultures 24 and 48 hours after TBH challenge. The relative extent of cell death was calculated from each standardized CA1 region as follows: % of dead cells=(experimental fluorescent intensity (FI)−background FI)/(maximal FI−background FI)×100, where maximal FI was obtained by killing all cells with exposure to 100 mM glutamate.
All the measurements were repeated for 5 independent culture preparations and 8 slices were used for each experimental condition. Statistical significance of the differences between the results was calculated using one-way Anova followed by Dunnet's test, (GraphPad Prism 3.02).
Rat brain slices were isolated following induction of localized damage by TBH (tert-butyl hydroperoxide) as discussed above. The resulting cell death in treated and non-treated brain slices was determined. […]

[2] = tested on: primary human muscle cell cultures; experiment: Creatine phosphokinase (CPK) assay of myogenic differentiation / myotube formation; format: cell-based; details: for effect on myoblast differentiation and myotube formation: differentiation medium, 48 hours, peptide alone (IGF-I 10 ng/ml)
Description: This assay was performed using previously published protocols [Auluck et al., 2005]. Measurement of CPK allows for the quantitative comparison of myogenesis [Goto et al., 1999], as it is a marker of myotube formation. The enzyme CPK catalyzes the reversible phosphorylation of adenosine-5-diphosphate (ADP) to form adenosine-5-triphosphate (ATP) and free creatine. The reaction may be followed in either direction by measuring the formation of inorganic phosphorus, an end-product of the reaction which is proportional to CPK activity. This was measured using the calorimetric method based on the generation of inorganic phosphate [Fiske and Subbarow, 1925] procedure. This was then expressed in terms of the protein content of the culture.
Previously expanded primary human muscle cell cultures were re-plated at 10×10^4 cells/well in 0.2% gelatin coated 96 well plates. […] (Sigma-Aldrich IGF-I ER2). After 48 hours, cells were washed twice with ice cold PBS and then stored frozen in 0.5 mM glycine buffer (pH 6.75) at −70° C. Fixed cells were lysed by rapid thawing and CPK assay kit used according to manufacturers instructions (Sigma-Aldrich). The protein concentration of each sample was determined against an albumin standard curve using the Pierce Micro BCA Kit (PerBio Science, UK Ltd., Northumberland, UK).

Substance	time for which the neuroprotective effect was observed [1]	protection against TBH-induced cell death [1]	effect on myoblast differentiation and myotube formation [2]	effect on myoblast differentiation and myotube formation ([2]; listed as mature IGF-I)	effect on differentiation in the presence of 10 ng/ml IGF-I ([2]; stabilised peptide with 10 ng/ml IGF-I, dose-dependent)
IGF-I: IGF-I receptor binding domain encoded by Exons 3 and 4, common to all splice variants, approximately 70 amino acids [reference compound]	up to 24 hours	72%	apparently stimulates myotube formation	enhanced differentiation	
stabilised peptide: SEQ ID NO: 15 with D-Arginine at positions 14 and 15, N-terminus attached to PEG (Jeffamine) via succinic acid bridge, amidated at C-terminus ({PEG (Jeffamine)-Suc}-YQPPSTNKNTKSQ[dR][dR]KGSTFEEHK-NH2; reading uncertain)	≥ 48 h	85%	no effect on myotube formation; also recorded: did not facilitate primary myoblast differentiation and myotube formation		prevented differentiation to the myoblast fusion competent stage
